In PubChem BioAssay AID1329 (NMMLSC, 2008):
Calls of active or inactive are those of the source. How the calls were made is not given here.

target: Induced myeloid leukemia cell differentiation protein Mcl-1 (Homo sapiens) (UniProt Q07820); assay: modulators of Bim peptide binding to Mcl-1, dose response, biochemical, bead-based flow cytometry, multiplexed, human (AID 1329); conditions: Bim peptide-Mcl-1 binding, MCF
Sequence (Q07820 whole entry, looked up): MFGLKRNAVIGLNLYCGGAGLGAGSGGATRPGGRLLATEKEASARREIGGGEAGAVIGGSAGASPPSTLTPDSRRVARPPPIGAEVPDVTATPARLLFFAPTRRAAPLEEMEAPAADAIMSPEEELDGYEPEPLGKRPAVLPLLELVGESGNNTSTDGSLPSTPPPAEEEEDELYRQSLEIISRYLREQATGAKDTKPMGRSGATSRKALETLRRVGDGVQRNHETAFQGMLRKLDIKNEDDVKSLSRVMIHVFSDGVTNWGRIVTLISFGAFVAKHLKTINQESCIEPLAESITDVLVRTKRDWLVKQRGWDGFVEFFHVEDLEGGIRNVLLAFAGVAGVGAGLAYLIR

Row | SMILES | percent span
1 | Cc1nn(-c2ccc(Cl)cc2)c(Cl)c1/C=C(\C#N)C(N)=O | inactive
2 | COc1ccc(N2C(=O)/C(=C/c3cccs3)NC2=S)cc1 | inactive
3 | Cc1cc(N/C(=N/S(=O)(=O)c2cc(F)ccc2F)c2ccccc2)n(-c2ccccc2)n1 | inactive
4 | CC(/C=C/C(=O)c1ccc(C)cc1)=C\c1ccccc1 | inactive
5 | CCOC(=O)c1cccc(Nc2ncnc3ccccc23)c1 | inactive
6 | CC(=O)c1ccc2c(c1)C1C=CCC1C(c1ccncc1)N2 (stereo not drawn) | inactive
7 | COc1cc(CNc2ccc3[nH]c(=O)[nH]c3c2)cc(Br)c1OCC(=O)NC(C)(C)C | inactive
8 | Cc1noc(C)c1CN1C(=O)NC(Cc2ccccc2)(Cc2ccccc2)C1=O | inactive
9 | CCOc1cc(S(=O)(=O)N2CCCCC2)ccc1F | inactive
10 | COc1cc(/C=C2\SC(=S)NC2=O)ccc1OS(=O)(=O)c1ccccc1 | inactive
11 | O=c1[nH]c(SCc2nc3ccccc3c(=O)n2-c2ccccc2C(F)(F)F)nc2ccccc12 | inactive
12 | Cc1cccc(N=C2NC(=O)/C(=C/C=C/c3ccco3)S2)c1C | inactive
13 | COc1ccc(NC(=O)c2sccc2SCc2cccc(C(F)(F)F)c2)cc1 | inactive
14 | O=C(CCCN1C(=O)c2cccc3cccc(c23)C1=O)N1CCN(c2ccccn2)CC1 | inactive
15 | CC(C)(C)C(=O)NC(NC(=S)Nc1ccc(S(N)(=O)=O)cc1)C(Cl)(Cl)Cl (stereo not drawn) | inactive
16 | C/C(=N\NC(=O)Cn1nc(C)c([N+](=O)[O-])c1C)c1ccc(O)cc1 | inactive
17 | Cc1c(NC2=C(Cl)C(=O)N(c3ccccc3Cl)C2=O)c(=O)n(-c2ccccc2)n1C | inactive
18 | CNC(=O)/C(C#N)=C/c1c(N(Cc2ccccc2)Cc2ccccc2)nc2c(C)cccn2c1=O | inactive
19 | CCCn1c(N2CCN(C)CC2)nc2c1c(=O)[nH]c(=O)n2C | inactive
20 | CCOC(=O)/C(=C\c1cccc(O)c1)c1nc2sc(C)c(C)c2c(=O)[nH]1 | inactive
21 | CCCCC(C(=O)OCC)C(N)Cc1ccc(F)cc1 (stereo not drawn) | inactive
22 | CCOc1ccc2nc(SCC(=O)N3c4ccccc4Sc4ccccc43)c(C#N)cc2c1 | inactive
23 | CCc1nnc(NC(=O)CSc2nnc(COc3ccc(C)cc3)n2-c2ccccc2)s1 | inactive
24 | Clc1nssc1=Nc1ccc(Br)cc1 | inactive
25 | Cc1ccc(NC(=O)c2cc(S(=O)(=O)NCCC3=CCCCC3)ccc2F)cc1F | inactive
26 | Cc1ccc(NN2C(=O)C=CC2=O)cc1 | inactive

Row | SMILES | percent span
27 | O=C1Nc2ccc([N+](=O)[O-])cc2OC1CCN1CCN(Cc2ccc3c(c2)OCO3)CC1 (stereo not drawn) | inactive
28 | COc1ccc(COC(=O)NNC(=O)c2ccccc2Cl)cc1 | inactive
29 | Cc1ccc(-n2c(CSc3nc(C)cc(C)n3)nnc2SCC(=O)NCc2ccco2)cc1 | inactive
30 | Cc1ccc(C)n1-c1cccc(C(=O)O)c1 | inactive
31 | CCC(=O)OCCNc1cc(Sc2nc3ccccc3s2)c2nonc2c1[N+](=O)[O-] | inactive
32 | Cn1cccc1CC(=O)N/N=C\c1ccccc1 | inactive
33 | Cc1ccc(NC2=C(Cl)C(=O)c3ccccc3C2=O)cc1 | inactive
34 | Cc1ccc(-c2nc3c(c(=O)[nH]c(=O)n3Cc3ccccc3)n2C)o1 | inactive
35 | CC(C)CCN1CCN(Cc2cccc3cccnc23)CC1CCO (stereo not drawn) | inactive
36 | COC(=O)c1sc2nc[nH]c(=O)c2c1C | inactive
37 | COCCn1nnnc1CN(Cc1ccco1)Cc1cc2cc3c(cc2[nH]c1=O)OCO3 | inactive
38 | CCN(CC)c1ccc(NC2=C(Cl)C(=O)c3ccccc3C2=O)cc1 | inactive
39 | CC1Cc2ccccc2N1C(=O)CSc1nnnn1-c1ccc2c(c1)OCCO2 (stereo not drawn) | inactive
40 | CCOc1ccccc1CNc1ccc(O)cc1 | inactive
41 | COc1ccc(N2C(=O)C(Cl)=C(Nc3ccccc3O)C2=O)cc1 | inactive
42 | COc1cccc(/C=N/NC(=O)c2cc3cc([N+](=O)[O-])ccc3s2)c1O | inactive
43 | COc1ccccc1Nc1nc(-c2c(C)nc3ncccn23)cs1 | inactive
44 | Cc1cccc(Nc2nc(-c3ccncc3)cs2)c1 | inactive
45 | C/C(=N/NC(=O)c1cc(O)c(O)c(O)c1)c1ccc([N+](=O)[O-])cc1 | inactive
46 | Cc1cc(NC(=O)CCSc2ccccc2)ccc1Br | inactive
47 | CCCOc1ccc(-c2c(C(=O)N/N=C/c3ccc(OC)cc3)nnn2-c2nonc2N)cc1 | inactive
48 | CC(C)(C)c1nc(NCCN2CCOCC2)c2nnn(Cc3ccccc3Cl)c2n1 | inactive
49 | CN1N=C(C(=O)N2CCCC(C(=O)c3cccc(C(F)(F)F)c3)C2)CCC1=O (stereo not drawn) | inactive
50 | CCOc1cc(CNc2ccc(N(C)C)cc2)cc(Br)c1OCC(=O)NC(C)(C)C | inactive
51 | CCn1c(C)c(/C=N/Nc2nc3ccccc3s2)c2ccccc21 | inactive
52 | Fc1ccc(C2=Nn3c(Cc4ccccc4F)nnc3SC2)cc1 | inactive

Row | SMILES | percent span
53 | CN=c1scc(-c2cccs2)n1/N=C/c1ccc(O)c(O)c1O | inactive
54 | Cc1ccc(-c2cc(C(=O)Nc3ccccc3C)c3ccccc3n2)o1 | inactive
55 | COc1ccc(NC(=O)c2c(F)cccc2F)cc1S(=O)(=O)Nc1ccc(Br)cc1 | inactive
56 | COc1cc(NC(=O)c2ccc3c(c2)OCO3)ccc1NC(=O)c1ccco1 | inactive
57 | O=C(N/N=C/c1ccc(-c2ccccc2[N+](=O)[O-])o1)c1cncc(Br)c1 | inactive
58 | c1ccc(C2=Nc3cccc4cccc(c34)N2)cc1 | inactive
59 | CCc1cccc(NC(=O)COc2ccccc2)c1 | inactive
60 | COc1ccc(CC(=O)Nc2ccc3nc(C)sc3c2)cc1OC | inactive
61 | COc1cc(NC(=S)NCCCO)c(OC)cc1Cl | inactive
62 | CCN1CCN(CC(=O)c2c[nH]c3ccc(C)cc23)CC1 | inactive
63 | CCN(CC)S(=O)(=O)c1cccc(C(=O)N/N=C/c2ccc(O)c(O)c2O)c1 | inactive
64 | Cc1c(NC2=C(Cl)C(=O)N(c3ccccc3)C2=O)c(=O)n(-c2ccccc2)n1C | inactive
65 | Cc1cccc(-c2nnc3n2N=C(c2ccccc2)CS3)c1 | inactive
66 | O=C(CCc1ccccc1)N1CCN(c2ccccn2)CC1 | inactive
67 | CCOc1cc(C2Nc3cccc4cccc(c34)N2)ccc1O | inactive
68 | O=C(c1cc2ccccc2oc1=O)N(c1ccccc1)C1C=CS(=O)(=O)C1 (stereo not drawn) | inactive
69 | O=C(NCCCO)Nc1ccc2nc(-c3ccco3)c(-c3ccco3)nc2c1 | inactive
70 | COc1ccc(-c2csc(NC(=O)/C(N=Nc3ccccc3)=C(\C)O)n2)cc1 | inactive
71 | Cc1ccc(CNc2ccc3c(c2)OCO3)c(C)c1 | inactive
72 | COc1ccc(C2=Nc3cccc4cccc(c34)N2)cc1 | inactive
73 | CNc1ccccc(C(=O)/C=C/c2ccccc2OC)c1=O | inactive
74 | COc1ccc(NC(=O)c2cc(-c3ccc(C)o3)nc3ccccc23)cc1OC | inactive
75 | COC(=O)CCC(=O)Nc1sc(Cc2ccccc2)c(C)c1C(N)=O | inactive
76 | COc1ccc(N2CCN(CCCNC(=O)CCCn3c(=O)[nH]c4ccsc4c3=O)CC2)cc1 | inactive
77 | O=c1c2c(n3nnnc3n1Cc1ccccc1)-c1ccccc1CC21CCCC1 | inactive
78 | CC(C(=O)Nc1ccc([N+](=O)[O-])cc1)N1CCN(C/C=C/c2ccccc2)CC1 (stereo not drawn) | inactive

Row | SMILES | percent span
79 | CCSc1ncc(Cl)c(C(=O)Nc2sc3c(c2C(=O)NCc2cccnc2)CCCC3)n1 | inactive
80 | Cc1ccc(S(=O)(=O)NC(=O)COc2ccccc2C)cc1 | inactive
81 | O=C(Cn1cncc1-c1ccc([N+](=O)[O-])cc1)Nc1ccccc1F | inactive
82 | N#Cc1ccc(N=c2ssnc2Cl)cc1 | inactive
83 | O=C1C=C(Nc2ccccc2)C(=O)c2ccccc21 | inactive
84 | COc1cccc(N2CC(C(=O)Nc3nnc(SCC(=O)c4ccccc4)s3)CC2=O)c1 (stereo not drawn) | inactive
85 | O=C(Nc1cccc(Cl)c1)Nc1ccc(Cl)cn1 | inactive
86 | O=C1NC(=O)C2(Cc3c(nc4ccccn4c3=O)N3CCCCCC32)C(=O)N1Cc1ccccc1 (stereo not drawn) | inactive
87 | CCOC(=O)c1nc(Nc2ccc(Nc3ccccc3)cc2)c2ccccc2n1 | inactive
88 | Cc1ccc(C(=O)C(C(=O)/C=C/c2ccccc2)=C2SCCCS2)cc1 | inactive
89 | COc1cc(/C=N/Nc2nc3c(c(=O)n(C)c(=O)n3C)n2Cc2ccccc2)ccc1OC(=O)c1ccco1 | inactive
90 | CCOc1cc(/C=N/NC(=O)c2cccs2)cc([N+](=O)[O-])c1O | inactive
91 | CNCc1ccccc1Sc1ccc(O)c(O)c1 | inactive
92 | COc1cccc(/C=N/Nc2nn3cnnc3c3ccccc23)c1O | inactive
93 | O=C1c2ccccc2C(=O)N1CN(C(=O)COc1ccc(Cl)cc1Cl)c1cccc(F)c1 | inactive
94 | COC(=O)c1ccc(C)c(NC(=O)CCNC(=O)c2ccc([N+](=O)[O-])cc2)c1 | inactive
95 | Cc1ccc(-c2ccc(CCC(=O)O)n2NC(=O)c2cccs2)cc1 | inactive
96 | COc1cc(NC(=S)NC(=O)c2cc(C)cc(C)c2)ccc1NC(=O)c1cccs1 | inactive
97 | S=C(Nc1ccccc1)N1CCn2cccc2C1c1cccnc1 (stereo not drawn) | inactive
98 | O=C1c2ccccc2-c2onc3ccc(NCc4ccco4)c1c23 | inactive
99 | CN(CC(=O)O/N=C(\N)c1ccc([N+](=O)[O-])cc1)S(=O)(=O)c1ccccc1 | inactive
100 | Cc1ccc(-c2cc(-c3ccc(Cl)cc3)c(C#N)c(N)n2)o1 | inactive
101 | COC(=O)CSc1nccc(-c2cccs2)n1 | inactive
102 | Cc1cc(Cl)ccc1N=c1ssnc1Cl | inactive
103 | O=C(NCCO)c1ccc2nc(-c3ccco3)c(-c3ccco3)nc2c1 | inactive
